Laboratory results reported in patent publication EP4745137A1 (Gluetacs Therapeutics (Shanghai) Co., Ltd., priority 2023, dated 2025).

Tests used:
Assay type in all cases: cell-based
Settings in all cases: 24 hours of compound treatment
GSPT1 = biological target: T1, GSPT1 (Homo sapiens, UniProt P15170+Q96SW2); experiment: Western-blot assay of substrate protein degradation in hPBMCs, GSPT1
T1 construct: endogenous in cells; host or cells: hPBMCs (Milecell Biotechnologies)
Method: (§1) After 24 hours of compounds treatment, cells were harvested and lysed in RIPA protein lysate containing protease inhibitors on ice for 30 min, followed by centrifugation. The supernatant was aspirated as the extracted total cell protein. The protein concentration of the supernatant was determined using the conventional BCA (Bicinchoninic Acid) assay. • (2) To the collected supernatant, 5X SDS sample loading buffer was added, followed by denaturation at 95°C for 5 minutes. The denatured samples were then separated by SDS-PAGE electrophoresis on a polyacrylamide gel, transferred onto a nitrocellulose membrane (0.45 µm NC membrane), blocked with blocking buffer at room temperature for 1 hour, and subjected to antibody incubation and development procedures according to the antibody manufacturer's instructions (Cell Signaling Technology Company). […]
(§2) Target protein remaining (%) refers to the percentage of target protein remaining in cells after treatment with protein degrader compounds.
(§3) Calculation method for target protein remaining (%): Use ImageJ software to measure grayscale values of Western blot bands from drug (protein degrader)-treated samples. The grayscale value of drug-treated bands is divided by that of internal control protein bands, and the resulting quotient is normalized to obtain the relative percentage of remaining target protein after protein degrader treatment. Target protein degradation rate(%) = 1−target protein remaining(%). [formula]

IKZF3 = biological target: T2, IKZF3 (Homo sapiens, UniProt Q96SW2+Q9UKT9); experiment: Western-blot assay of substrate protein degradation in hPBMCs, IKZF3
T2 construct: endogenous in cells; host or cells: hPBMCs (Milecell Biotechnologies)
T2 sequence (Q9UKT9 whole entry): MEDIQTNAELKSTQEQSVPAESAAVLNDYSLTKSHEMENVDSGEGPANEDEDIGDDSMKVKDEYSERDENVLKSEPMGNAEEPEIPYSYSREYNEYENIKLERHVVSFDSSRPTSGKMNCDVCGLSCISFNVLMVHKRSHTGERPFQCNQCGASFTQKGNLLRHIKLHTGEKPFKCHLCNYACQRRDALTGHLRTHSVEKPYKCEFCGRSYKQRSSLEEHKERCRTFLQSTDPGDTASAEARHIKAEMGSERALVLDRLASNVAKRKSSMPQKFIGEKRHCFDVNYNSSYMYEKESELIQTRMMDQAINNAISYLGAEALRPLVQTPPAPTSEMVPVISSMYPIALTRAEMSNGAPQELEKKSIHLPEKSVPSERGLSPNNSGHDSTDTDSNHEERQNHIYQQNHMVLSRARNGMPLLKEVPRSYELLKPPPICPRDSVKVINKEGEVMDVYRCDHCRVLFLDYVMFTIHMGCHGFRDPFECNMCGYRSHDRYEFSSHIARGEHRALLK
T2 sequence (Q96SW2 whole entry): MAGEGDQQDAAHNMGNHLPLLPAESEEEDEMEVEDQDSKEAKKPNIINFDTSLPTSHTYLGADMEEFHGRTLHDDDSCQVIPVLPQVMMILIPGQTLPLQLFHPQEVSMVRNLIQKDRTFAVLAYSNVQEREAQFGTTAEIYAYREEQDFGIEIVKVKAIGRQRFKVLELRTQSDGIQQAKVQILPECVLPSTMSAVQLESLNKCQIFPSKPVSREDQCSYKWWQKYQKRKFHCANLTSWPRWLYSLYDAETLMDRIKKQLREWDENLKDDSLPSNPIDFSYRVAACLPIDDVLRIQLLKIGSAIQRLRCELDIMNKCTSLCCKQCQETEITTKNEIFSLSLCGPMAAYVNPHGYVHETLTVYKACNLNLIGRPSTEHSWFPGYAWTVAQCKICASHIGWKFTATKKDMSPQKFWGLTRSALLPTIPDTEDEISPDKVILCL
T2 sequence (Q16531 whole entry partner): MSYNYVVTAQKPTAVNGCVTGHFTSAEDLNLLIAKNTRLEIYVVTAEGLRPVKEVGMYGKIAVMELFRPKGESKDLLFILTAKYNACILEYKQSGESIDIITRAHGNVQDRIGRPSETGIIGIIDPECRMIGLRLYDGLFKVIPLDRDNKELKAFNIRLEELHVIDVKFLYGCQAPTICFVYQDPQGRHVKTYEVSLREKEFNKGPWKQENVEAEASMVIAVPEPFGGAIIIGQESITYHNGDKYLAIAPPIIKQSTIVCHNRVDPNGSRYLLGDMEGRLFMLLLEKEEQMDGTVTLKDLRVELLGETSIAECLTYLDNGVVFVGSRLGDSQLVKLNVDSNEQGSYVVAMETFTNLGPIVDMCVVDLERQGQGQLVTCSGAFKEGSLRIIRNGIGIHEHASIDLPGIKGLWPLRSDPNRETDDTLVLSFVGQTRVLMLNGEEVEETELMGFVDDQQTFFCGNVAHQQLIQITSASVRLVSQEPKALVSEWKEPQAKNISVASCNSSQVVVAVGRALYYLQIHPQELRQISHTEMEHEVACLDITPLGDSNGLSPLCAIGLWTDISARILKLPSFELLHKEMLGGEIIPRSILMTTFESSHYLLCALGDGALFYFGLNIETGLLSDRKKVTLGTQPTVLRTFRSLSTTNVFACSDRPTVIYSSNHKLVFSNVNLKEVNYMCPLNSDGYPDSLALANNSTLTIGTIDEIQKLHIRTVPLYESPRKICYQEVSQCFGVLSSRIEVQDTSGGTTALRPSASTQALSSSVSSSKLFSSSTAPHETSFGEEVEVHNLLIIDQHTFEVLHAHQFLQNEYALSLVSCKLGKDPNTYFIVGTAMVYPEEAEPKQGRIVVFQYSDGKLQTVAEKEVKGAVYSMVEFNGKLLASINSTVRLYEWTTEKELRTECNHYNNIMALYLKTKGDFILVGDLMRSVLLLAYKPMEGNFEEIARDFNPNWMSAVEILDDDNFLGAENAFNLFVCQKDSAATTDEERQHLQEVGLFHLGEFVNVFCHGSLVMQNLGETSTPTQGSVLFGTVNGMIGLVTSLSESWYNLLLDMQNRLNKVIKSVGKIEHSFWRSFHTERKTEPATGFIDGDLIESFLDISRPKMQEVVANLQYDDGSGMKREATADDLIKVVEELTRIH
Method: as §1, §2, §3

IKZF1 = biological target: T3, IKZF1 (Homo sapiens, UniProt Q13422+Q96SW2); experiment: Western-blot assay of substrate protein degradation in hPBMCs, IKZF1
T3 construct: endogenous in cells; host or cells: hPBMCs (Milecell Biotechnologies)
Method: as §1, §2, §3

CK1α = biological target: T4, CK1α (Homo sapiens, UniProt P48729+Q96SW2); experiment: Western-blot assay of substrate protein degradation in hPBMCs, CK1α
T4 construct: endogenous in cells; host or cells: hPBMCs (Milecell Biotechnologies)
T4 sequence (P48729 whole entry): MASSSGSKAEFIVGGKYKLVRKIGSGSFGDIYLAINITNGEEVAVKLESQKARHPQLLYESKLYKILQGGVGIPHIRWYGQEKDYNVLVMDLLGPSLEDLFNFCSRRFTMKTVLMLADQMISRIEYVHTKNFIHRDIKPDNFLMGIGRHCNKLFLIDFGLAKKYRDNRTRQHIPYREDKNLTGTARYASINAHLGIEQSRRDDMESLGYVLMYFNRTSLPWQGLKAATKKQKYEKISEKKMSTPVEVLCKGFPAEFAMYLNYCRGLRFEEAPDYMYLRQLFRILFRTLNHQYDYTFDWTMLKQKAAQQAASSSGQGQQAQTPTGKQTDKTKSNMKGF
T4 sequence (Q96SW2 whole entry): as the sequence (Q96SW2 whole entry) above
T4 sequence (Q16531 whole entry partner): as the sequence (Q16531 whole entry partner) above
Method: as §1, §2, §3

WEE1 = biological target: T5, WEE1 (Homo sapiens, UniProt P30291+Q96SW2); experiment: Western-blot assay of substrate protein degradation in hPBMCs, WEE1
T5 construct: endogenous in cells; host or cells: hPBMCs (Milecell Biotechnologies)
T5 sequence (P30291 whole entry): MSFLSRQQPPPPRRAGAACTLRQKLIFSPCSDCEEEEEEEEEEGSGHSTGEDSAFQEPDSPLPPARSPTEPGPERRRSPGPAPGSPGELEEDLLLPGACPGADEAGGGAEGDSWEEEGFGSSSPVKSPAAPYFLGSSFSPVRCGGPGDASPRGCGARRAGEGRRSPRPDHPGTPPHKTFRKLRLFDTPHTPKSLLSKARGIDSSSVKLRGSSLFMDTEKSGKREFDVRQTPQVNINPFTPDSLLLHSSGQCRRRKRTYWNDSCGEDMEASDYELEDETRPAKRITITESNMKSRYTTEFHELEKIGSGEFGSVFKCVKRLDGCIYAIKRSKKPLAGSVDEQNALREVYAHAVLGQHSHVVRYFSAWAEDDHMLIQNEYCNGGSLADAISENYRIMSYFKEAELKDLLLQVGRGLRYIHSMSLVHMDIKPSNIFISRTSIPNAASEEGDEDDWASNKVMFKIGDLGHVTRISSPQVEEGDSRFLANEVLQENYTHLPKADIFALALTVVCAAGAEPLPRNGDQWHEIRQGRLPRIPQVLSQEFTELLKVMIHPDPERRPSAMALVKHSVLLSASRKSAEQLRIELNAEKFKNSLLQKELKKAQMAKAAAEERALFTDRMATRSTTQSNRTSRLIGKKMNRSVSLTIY
T5 sequence (Q96SW2 whole entry): as the sequence (Q96SW2 whole entry) above
T5 sequence (Q16531 whole entry partner): as the sequence (Q16531 whole entry partner) above
Method: as §1, §2, §3

IKZF2 = biological target: T6, IKZF2 (Homo sapiens, UniProt Q96SW2+Q9UKS7); experiment: Western-blot assay of substrate protein degradation in hPBMCs, IKZF2
T6 construct: endogenous in cells; host or cells: hPBMCs (Milecell Biotechnologies)
T6 sequence (Q9UKS7 whole entry): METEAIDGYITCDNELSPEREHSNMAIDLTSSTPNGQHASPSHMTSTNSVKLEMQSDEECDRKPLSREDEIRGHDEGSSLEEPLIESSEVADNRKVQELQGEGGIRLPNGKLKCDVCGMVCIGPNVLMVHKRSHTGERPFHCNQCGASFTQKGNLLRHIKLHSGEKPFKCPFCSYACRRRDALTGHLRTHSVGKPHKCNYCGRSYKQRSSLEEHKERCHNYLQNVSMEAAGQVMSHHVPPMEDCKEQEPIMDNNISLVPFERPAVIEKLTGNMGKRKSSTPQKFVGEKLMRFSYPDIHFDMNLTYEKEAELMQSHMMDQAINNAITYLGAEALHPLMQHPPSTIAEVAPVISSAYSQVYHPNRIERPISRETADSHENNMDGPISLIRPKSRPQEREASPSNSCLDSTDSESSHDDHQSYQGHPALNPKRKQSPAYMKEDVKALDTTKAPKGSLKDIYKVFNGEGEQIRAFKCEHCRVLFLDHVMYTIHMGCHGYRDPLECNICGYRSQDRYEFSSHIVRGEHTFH
T6 sequence (Q96SW2 whole entry): as the sequence (Q96SW2 whole entry) above
T6 sequence (Q16531 whole entry partner): as the sequence (Q16531 whole entry partner) above
Method: as §1, §2, §3

[1] = compounds tested at 50 nM and 500 nM (concentration of the table not stated)
[2] = 50 nM and 500 nM tested (concentration behind the class not stated)

T1 sequence (P15170 whole entry): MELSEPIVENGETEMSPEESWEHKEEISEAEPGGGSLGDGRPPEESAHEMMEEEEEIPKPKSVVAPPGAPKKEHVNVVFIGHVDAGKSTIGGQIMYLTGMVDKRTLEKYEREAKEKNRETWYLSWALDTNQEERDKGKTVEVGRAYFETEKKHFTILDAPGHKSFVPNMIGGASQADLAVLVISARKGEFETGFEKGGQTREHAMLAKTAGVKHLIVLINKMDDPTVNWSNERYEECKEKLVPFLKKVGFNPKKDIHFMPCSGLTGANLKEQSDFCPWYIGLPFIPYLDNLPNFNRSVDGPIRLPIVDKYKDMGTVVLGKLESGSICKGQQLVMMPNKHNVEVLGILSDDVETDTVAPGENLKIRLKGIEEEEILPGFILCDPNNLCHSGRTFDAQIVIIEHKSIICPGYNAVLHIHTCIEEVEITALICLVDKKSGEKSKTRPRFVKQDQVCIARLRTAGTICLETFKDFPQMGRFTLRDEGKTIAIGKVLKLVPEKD
T1 sequence (Q96SW2 whole entry): as the sequence (Q96SW2 whole entry) above
T1 sequence (Q16531 whole entry partner): as the sequence (Q16531 whole entry partner) above

Compound	GSPT1 substrate protein remaining % (GSPT1; [1])	IKZF3 substrate protein remaining % (IKZF3; [1])	IKZF 1 substrate protein remaining % (IKZF1; [1])	CK1a substrate protein remaining % (CK1α; [1])	Weel substrate protein remaining % (WEE1; [1])	IKZF2 substrate protein remaining % (IKZF2; [1])	GSPT1 substrate protein remaining % (GSPT1; [2])	IKZF3 substrate protein remaining % (IKZF3; [2])	IKZF 1 substrate protein remaining % (IKZF1; [2])	CK1a substrate protein remaining % (CK1α; [2])	Weel substrate protein remaining % (WEE1; [2])	IKZF2 substrate protein remaining % (IKZF2; [2])
O=C1CCC(N2C(=O)c3ccc(CN4CCC(c5cccc6c(F)cccc56)CC4)cc3C2=O)C(=O)N1 (stereo not drawn) [GT-06263, 2-(2,6-dioxopiperidin-3-yl)-5-((4-(5-fluoronaphthalen-1-yl)piperidin-1-yl)methyl)isoindoline-1,3-dione]	A (0% ≤ substrate protein remaining % ≤ 80%)	A (0% ≤ substrate protein remaining % ≤ 80%)	B (80%< substrate protein remaining %≤ 100%)	A (0% ≤ substrate protein remaining % ≤ 80%)	B (80%< substrate protein remaining %≤ 100%)	B (80%< substrate protein remaining %≤ 100%)	–	–	–	–	–	–
O=C1CCC(N2C(=O)c3ccc(CN4CC=C(c5cccc6c(F)cccc56)CC4)cc3C2=O)C(=O)N1 (stereo not drawn) [GT-06264, 2-(2,6-dioxopiperidin-3-yl)-5-((4-(5-fluoronaphthalen-1-yl)-3,6-dihydropyridin-1(2H)-yl)methyl)isoindoline-1,3-dione]	A (0% ≤ substrate protein remaining % ≤ 80%)	A (0% ≤ substrate protein remaining % ≤ 80%)	A (0% ≤ substrate protein remaining % ≤ 80%)	A (0% ≤ substrate protein remaining % ≤ 80%)	A (0% ≤ substrate protein remaining % ≤ 80%)	A (0% ≤ substrate protein remaining % ≤ 80%)	–	–	–	–	–	–
O=C1CCC(N2C(=O)c3ccc(CN4CCC(c5ccnc6cc(F)ccc56)CC4)cc3C2=O)C(=O)N1 (stereo not drawn) [GT-06265, 2-(2,6-dioxopiperidin-3-yl)-5-((4-(7-fluoroquinolin-4-yl)piperidin-1-yl)methyl)isoindoline-1,3-dione]	B (80%< substrate protein remaining %≤ 100%)	B (80%< substrate protein remaining %≤ 100%)	B (80%< substrate protein remaining %≤ 100%)	B (80%< substrate protein remaining %≤ 100%)	B (80%< substrate protein remaining %≤ 100%)	A (0% ≤ substrate protein remaining % ≤ 80%)	–	–	–	–	–	–
O=C1CCC(N2C(=O)c3ccc(CN4CCC(c5cccc6cnccc56)CC4)cc3C2=O)C(=O)N1 (stereo not drawn) [GT-06266, 2-(2,6-dioxopiperidin-3-yl)-5-((4-(isoquinolin-5-yl)piperidin-1-yl)methyl)isoindoline-1,3-dione]	B (80%< substrate protein remaining %≤ 100%)	B (80%< substrate protein remaining %≤ 100%)	B (80%< substrate protein remaining %≤ 100%)	B (80%< substrate protein remaining %≤ 100%)	B (80%< substrate protein remaining %≤ 100%)	A (0% ≤ substrate protein remaining % ≤ 80%)	–	–	–	–	–	–
O=C1CCC(N2C(=O)c3ccc(CN4CC=C(c5ccnc6cc(F)ccc56)CC4)cc3C2=O)C(=O)N1 (stereo not drawn) [GT-06267, 2-(2,6-dioxopiperidin-3-yl)-5-((4-(7-fluoroquinolin-4-yl)-3,6-dihydropyridin-1(2H)-yl)methyl)isoindoline-1,3-dione]	A (0% ≤ substrate protein remaining % ≤ 80%)	A (0% ≤ substrate protein remaining % ≤ 80%)	B (80%< substrate protein remaining %≤ 100%)	A (0% ≤ substrate protein remaining % ≤ 80%)	A (0% ≤ substrate protein remaining % ≤ 80%)	A (0% ≤ substrate protein remaining % ≤ 80%)	–	–	–	–	–	–
O=C1CCC(N2C(=O)c3ccc(CN4CC=C(c5cccc6cnccc56)CC4)cc3C2=O)C(=O)N1 (stereo not drawn) [GT-06268, 2-(2,6-dioxopiperidin-3-yl)-5-((4-(isoquinolin-5-yl)-3,6-dihydropyridin-1(2H)-yl)methyl)isoindoline-1,3-dione]	A (0% ≤ substrate protein remaining % ≤ 80%)	A (0% ≤ substrate protein remaining % ≤ 80%)	B (80%< substrate protein remaining %≤ 100%)	A (0% ≤ substrate protein remaining % ≤ 80%)	A (0% ≤ substrate protein remaining % ≤ 80%)	A (0% ≤ substrate protein remaining % ≤ 80%)	–	–	–	–	–	–
O=C1CCC(N2C(=O)c3ccc(CN4CC(C5CCOc6cc(F)ccc65)C4)cc3C2=O)C(=O)N1 (stereo not drawn) [GT-06269, 2-(2,6-dioxopiperidin-3-yl)-5-((3-(7-fluorochroman-4-yl)azetidin-1-yl)methyl)isoindoline-1,3-dione]	A (0% ≤ substrate protein remaining % ≤ 80%)	A (0% ≤ substrate protein remaining % ≤ 80%)	B (80%< substrate protein remaining %≤ 100%)	B (80%< substrate protein remaining %≤ 100%)	B (80%< substrate protein remaining %≤ 100%)	A (0% ≤ substrate protein remaining % ≤ 80%)	–	–	–	–	–	–
O=C1CCC(N2C(=O)c3ccc(CN4CC(c5ccnc6cc(F)ccc56)C4)cc3C2=O)C(=O)N1 (stereo not drawn) [GT-06270, 2-(2,6-dioxopiperidin-3-yl)-5-((3-(7-fluoroquinolin-4-yl)azetidin-1-yl)methyl)isoindoline-1,3-dione]	–	–	–	–	–	–	A (0% ≤ substrate protein remaining % ≤ 80%)	B (80%< substrate protein remaining %≤ 100%)	B (80%< substrate protein remaining %≤ 100%)	B (80%< substrate protein remaining %≤ 100%)	B (80%< substrate protein remaining %≤ 100%)	B (80%< substrate protein remaining %≤ 100%)
O=C1CCC(N2C(=O)c3ccc(CN4CC(N5CCc6cc(F)ccc65)C4)cc3C2=O)C(=O)N1 (stereo not drawn) [GT-06271, 2-(2,6-dioxopiperidin-3-yl)-5-((3-(5-fluoroindolin-1-yl)azetidin-1-yl)methyl)isoindoline-1,3-dione]	–	–	–	–	–	–	A (0% ≤ substrate protein remaining % ≤ 80%)	B (80%< substrate protein remaining %≤ 100%)	A (0% ≤ substrate protein remaining % ≤ 80%)	B (80%< substrate protein remaining %≤ 100%)	A (0% ≤ substrate protein remaining % ≤ 80%)	A (0% ≤ substrate protein remaining % ≤ 80%)
O=C1CCC(N2C(=O)c3ccc(CN4CCN(c5cccc(Cl)c5Cl)CC4)cc3C2=O)C(=O)N1 (stereo not drawn) [GT-06273, 5-((4-(2,3-dichlorophenyl)piperazin-1-yl)methyl)-2-(2,6-dioxopiperidin-3-yl)isoindoline-1,3-dione]	–	–	–	–	–	–	A (0% ≤ substrate protein remaining % ≤ 80%)	A (0% ≤ substrate protein remaining % ≤ 80%)	A (0% ≤ substrate protein remaining % ≤ 80%)	A (0% ≤ substrate protein remaining % ≤ 80%)	A (0% ≤ substrate protein remaining % ≤ 80%)	A (0% ≤ substrate protein remaining % ≤ 80%)
O=C1CCC(N2C(=O)c3ccc(CN4CCN(c5ccccc5Cl)CC4)cc3C2=O)C(=O)N1 (stereo not drawn) [GT-06274, 5-((4-(2-chlorophenyl)piperazin-1-yl)methyl)-2-(2,6-dioxopiperidin-3-yl)isoindoline-1,3-dione]	–	–	–	–	–	–	A (0% ≤ substrate protein remaining % ≤ 80%)	B (80%< substrate protein remaining %≤ 100%)	B (80%< substrate protein remaining %≤ 100%)	B (80%< substrate protein remaining %≤ 100%)	B (80%< substrate protein remaining %≤ 100%)	B (80%< substrate protein remaining %≤ 100%)
